Key:
S. pneumoniae D39V = assay: fitness (endpoint OD595 vs no drug) (fraction); higher = more growth
Outline: (§1)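 Fitness was defined as the optical density at the transition into stationary phase relative to the robust mean of no-drug control wells. Values were capped at 1. Cultures were started at OD595 0.01 in 384-well plates (30 µl, or 55 µl for S. pneumoniae) in TSB, LB Lennox or CY at 37 °C. OD595 was recorded every 30 min over 14 h, with the first reading subtracted as background.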

B. subtilis 168 = assay: as above
Outline: as §1

CC(=O)Oc1ccccc1C(=O)O [Acetylsalicylic acid] + O=C(O)c1cn(C2CC2)c2cc(N3CCNCC3)c(F)cc2c1=O [Ciprofloxacin]
fitness, S. pneumoniae D39V
Details	first compound 250 µg/mL	first compound 500 µg/mL	first compound 1000 µg/mL
partner 0.125 µg/mL	0.963	0.907	0.863
partner 0.25 µg/mL	0.883	0.904	0.833
partner 0.5 µg/mL	0.835	0.835	0.719

O=C(O)c1cn(C2CC2)c2cc(N3CCNCC3)c(F)cc2c1=O [Ciprofloxacin] + CN(C)[C@@H]1C(O)=C(C(N)=O)C(=O)[C@@]2(O)C(O)=C3C(=O)c4c(O)ccc(Cl)c4[C@@](C)(O)[C@H]3C[C@@H]12 [Chlortetracycline]
Details	fitness
B. subtilis 168, first compound 0.0098 µg/mL, partner 0.0475 µg/mL	0.886
B. subtilis 168, first compound 0.0098 µg/mL, partner 0.095 µg/mL	0.82
B. subtilis 168, first compound 0.0098 µg/mL, partner 0.19 µg/mL	0.658
B. subtilis 168, first compound 0.0195 µg/mL, partner 0.0475 µg/mL	0.776
B. subtilis 168, first compound 0.0195 µg/mL, partner 0.095 µg/mL	0.692
B. subtilis 168, first compound 0.0195 µg/mL, partner 0.19 µg/mL	0.582
B. subtilis 168, first compound 0.039 µg/mL, partner 0.19 µg/mL	0.307
S. pneumoniae D39V, first compound 0.125 µg/mL, partner 0.012 µg/mL	0.867
S. pneumoniae D39V, first compound 0.125 µg/mL, partner 0.024 µg/mL	0.748
S. pneumoniae D39V, first compound 0.125 µg/mL, partner 0.048 µg/mL	0.35
S. pneumoniae D39V, first compound 0.125 µg/mL, partner 0.375 µg/mL	0.0283
S. pneumoniae D39V, first compound 0.125 µg/mL, partner 0.75 µg/mL	0.038
S. pneumoniae D39V, first compound 0.125 µg/mL, partner 1.5 µg/mL	0.0287
S. pneumoniae D39V, first compound 0.25 µg/mL, partner 0.375 µg/mL	0.0322
S. pneumoniae D39V, first compound 0.25 µg/mL, partner 0.75 µg/mL	0.0502
S. pneumoniae D39V, first compound 0.25 µg/mL, partner 1.5 µg/mL	0.0591
S. pneumoniae D39V, first compound 0.5 µg/mL, partner 0.048 µg/mL	0.323
S. pneumoniae D39V, first compound 0.5 µg/mL, partner 0.75 µg/mL	0.0332
S. pneumoniae D39V, first compound 0.5 µg/mL, partner 1.5 µg/mL	0.0454

S. pneumoniae D39V, first compound 0.25 µg/mL, one replicate
Details	fitness
partner 0.012 µg/mL	0.74
partner 0.024 µg/mL	0.447
partner 0.048 µg/mL	0.237

CN(C)[C@@H]1C(O)=C(C(N)=O)C(=O)[C@@]2(O)C(O)=C3C(=O)c4c(O)ccc(Cl)c4[C@@](C)(O)[C@H]3C[C@@H]12 [Chlortetracycline] + Clc1ccc(COC(Cn2ccnc2)c2ccc(Cl)cc2Cl)c(Cl)c1 [Miconazole]
fitness, S. pneumoniae D39V
Details	first compound 0.012 µg/mL	first compound 0.024 µg/mL	first compound 0.048 µg/mL	first compound 0.375 µg/mL	first compound 0.75 µg/mL	first compound 1.5 µg/mL
partner 1.073 µg/mL	0.995	0.926	0.907	–	–	–
partner 1.25 µg/mL	–	–	–	0.0819	0.0494	0.0765
partner 2.145 µg/mL	0.971	0.935	0.879	–	–	–
partner 2.5 µg/mL	–	–	–	0.104	0.0646	0.0895
partner 4.29 µg/mL	0.913	0.883	0.793	–	–	–
partner 5 µg/mL	–	–	–	0.0525	0.0422	0.0647

CN(C)[C@@H]1C(O)=C(C(N)=O)C(=O)[C@@]2(O)C(O)=C3C(=O)c4c(O)ccc(Cl)c4[C@@](C)(O)[C@H]3C[C@@H]12 [Chlortetracycline] + CO[C@@H]1[C@@H](OC(N)=O)[C@@H](O)[C@H](Oc2ccc3c(O)c(NC(=O)c4ccc(O)c(CC=C(C)C)c4)c(=O)oc3c2C)OC1(C)C [Novobiocin]
fitness, B. subtilis 168
Details	first compound 0.0475 µg/mL	first compound 0.095 µg/mL	first compound 0.19 µg/mL
partner 0.0125 µg/mL	0.909	0.765	0.469
partner 0.025 µg/mL	0.623	0.653	0.336
partner 0.05 µg/mL	0.986	0.844	0.398

fitness, B. subtilis 168, one replicate
Details	partner 0.1 µg/mL	partner 0.125 µg/mL	partner 0.2 µg/mL	partner 0.25 µg/mL	partner 0.5 µg/mL
first compound 0.0475 µg/mL	0.948	0.928	0.934	0.966	0.648
first compound 0.095 µg/mL	0.863	0.839	0.936	0.811	0.577
first compound 0.19 µg/mL	0.529	0.548	0.52	0.537	0.323

CN(C)[C@@H]1C(O)=C(C(N)=O)C(=O)[C@@]2(O)C(O)=C3C(=O)c4c(O)ccc(Cl)c4[C@@](C)(O)[C@H]3C[C@@H]12 [Chlortetracycline] + O=C1CN(/N=C/c2ccc([N+](=O)[O-])o2)C(=O)N1 [Nitrofurantoin]
fitness, S. pneumoniae D39V
Details	first compound 0.012 µg/mL	first compound 0.024 µg/mL	first compound 0.048 µg/mL	first compound 0.375 µg/mL	first compound 0.75 µg/mL	first compound 1.5 µg/mL
partner 1.285 µg/mL	0.958	0.896	0.842	–	–	–
partner 2 µg/mL	–	–	–	0.034	0.0485	0.0311
partner 2.57 µg/mL	0.96	0.951	0.836	–	–	–
partner 4 µg/mL	–	–	–	0.0275	0.0381	0.0293
partner 8 µg/mL	–	–	–	0.0328	0.0386	0.0233

S. pneumoniae D39V, partner 5.14 µg/mL, one replicate
Details	fitness
first compound 0.012 µg/mL	0.862
first compound 0.024 µg/mL	0.898
first compound 0.048 µg/mL	0.762

CC(=O)Oc1ccccc1C(=O)O [Acetylsalicylic acid] + CN(C)c1cc(NC(=O)CNC(C)(C)C)c(O)c2c1C[C@H]1C[C@H]3[C@H](N(C)C)C(O)=C(C(N)=O)C(=O)[C@@]3(O)C(O)=C1C2=O [Tigecycline]
fitness, S. pneumoniae D39V
Details	partner 0.325 µg/mL	partner 0.65 µg/mL	partner 1.3 µg/mL	partner 2.6 µg/mL
first compound 250 µg/mL	0.934	0.968	1	0.932
first compound 500 µg/mL	0.904	0.985	0.949	0.95
first compound 1000 µg/mL	0.797	0.763	0.803	0.718

CN(C)[C@@H]1C(O)=C(C(N)=O)C(=O)[C@@]2(O)C(O)=C3C(=O)c4c(O)ccc(Cl)c4[C@@](C)(O)[C@H]3C[C@@H]12 [Chlortetracycline] + C/C(=C\C(=O)OCCCCCCCCC(=O)O)C[C@@H]1OC[C@H](C[C@@H]2O[C@H]2[C@@H](C)[C@H](C)O)[C@@H](O)[C@H]1O [Pseudomonic acid]
fitness, S. pneumoniae D39V
Details	first compound 0.012 µg/mL	first compound 0.024 µg/mL	first compound 0.048 µg/mL	first compound 0.375 µg/mL	first compound 0.75 µg/mL	first compound 1.5 µg/mL
partner 0.03 µg/mL	0.884	0.853	0.829	0.0434	0.0614	0.0477
partner 0.06 µg/mL	0.78	0.75	0.779	0.0787	0.0801	0.0542
partner 0.12 µg/mL	0.57	0.586	0.62	0.0891	0.0486	0.0665

CN(C)[C@@H]1C(O)=C(C(N)=O)C(=O)[C@@]2(O)C(O)=C3C(=O)c4c(O)ccc(Cl)c4[C@@](C)(O)[C@H]3C[C@@H]12 [Chlortetracycline] + C[C@@H](O)[C@H]1C(=O)N2C(C(=O)O)=C(SCCNC=N)C[C@H]12 [Imipenem]
fitness, S. pneumoniae D39V
Details	first compound 0.012 µg/mL	first compound 0.024 µg/mL	first compound 0.048 µg/mL	first compound 0.375 µg/mL	first compound 0.75 µg/mL	first compound 1.5 µg/mL
partner 0.005 µg/mL	–	–	–	0.0486	0.0409	0.0284
partner 0.0065 µg/mL	0.894	0.799	0.686	–	–	–
partner 0.01 µg/mL	–	–	–	0.0501	0.0583	0.0373
partner 0.013 µg/mL	0.863	0.865	0.837	–	–	–
partner 0.02 µg/mL	–	–	–	0.0339	0.065	0.065
partner 0.026 µg/mL	0.724	0.761	0.724	–	–	–

CC(=O)Oc1ccccc1C(=O)O [Acetylsalicylic acid] + C[C@H]1COc2c(N3CCN(C)CC3)c(F)cc3c(=O)c(C(=O)O)cn1c23 [Levofloxacin]
fitness, S. pneumoniae D39V
Details	partner 0.1725 µg/mL	partner 0.2 µg/mL	partner 0.345 µg/mL	partner 0.4 µg/mL	partner 0.69 µg/mL	partner 0.8 µg/mL
first compound 250 µg/mL	0.992	0.92	0.954	0.868	0.671	0.673
first compound 500 µg/mL	≥ 1	0.929	0.9	0.898	0.692	0.653
first compound 1000 µg/mL	0.95	0.881	0.938	0.734	0.716	0.513

CC(=O)Oc1ccccc1C(=O)O [Acetylsalicylic acid] + C/C(=C\C(=O)OCCCCCCCCC(=O)O)C[C@@H]1OC[C@H](C[C@@H]2O[C@H]2[C@@H](C)[C@H](C)O)[C@@H](O)[C@H]1O [Pseudomonic acid]
fitness, S. pneumoniae D39V
Details	first compound 250 µg/mL	first compound 500 µg/mL	first compound 1000 µg/mL
partner 0.03 µg/mL	0.933	0.9	0.825
partner 0.06 µg/mL	0.822	0.723	–
partner 0.12 µg/mL	0.542	0.488	0.383

CN(C)[C@@H]1C(O)=C(C(N)=O)C(=O)[C@@]2(O)C(O)=C3C(=O)c4c(O)ccc(Cl)c4[C@@](C)(O)[C@H]3C[C@@H]12 [Chlortetracycline] + CO/N=C(\C(=O)N[C@@H]1C(=O)N2C(C(=O)O)=C(COC(N)=O)CS[C@H]12)c1ccco1 [Cefuroxime]
fitness, B. subtilis 168
Details	first compound 0.0475 µg/mL	first compound 0.095 µg/mL	first compound 0.19 µg/mL
partner 0.04875 µg/mL	0.667	0.593	0.162
partner 0.0975 µg/mL	0.601	0.519	0.135
partner 0.195 µg/mL	0.429	0.312	0.0926

fitness, B. subtilis 168, one replicate
Details	partner 0.39 µg/mL	partner 0.78 µg/mL	partner 1.562 µg/mL	partner 3.125 µg/mL	partner 6.25 µg/mL
first compound 0.0475 µg/mL	0.346	0.362	0.303	0.275	0.21
first compound 0.095 µg/mL	0.207	0.145	0.103	0.0825	0.0597
first compound 0.19 µg/mL	0.0621	0.0481	0.038	0.0341	0.0237

C[C@H]1c2cccc(O)c2C(=O)C2=C(O)[C@]3(O)C(=O)C(C(N)=O)=C(O)[C@@H](N(C)C)[C@@H]3[C@@H](O)[C@@H]21 [Doxycycline] + CO[C@@]12[C@H](COC(N)=O)C3=C(C(=O)C(C)=C(N)C3=O)N1C[C@@H]1N[C@@H]12 [Mitomycin C]
fitness, S. pneumoniae D39V, one replicate
Details	first compound 0.003875 µg/mL	first compound 0.00775 µg/mL	first compound 0.031 µg/mL	first compound 0.062 µg/mL
partner 0.002 µg/mL	0.897	0.823	0.833	0.64
partner 0.004 µg/mL	0.848	0.828	0.783	0.616
partner 0.008 µg/mL	0.615	0.622	0.622	0.456

fitness, S. pneumoniae D39V
Details	partner 0.001075 µg/mL	partner 0.002 µg/mL	partner 0.00215 µg/mL	partner 0.004 µg/mL	partner 0.0043 µg/mL	partner 0.008 µg/mL
first compound 0.0155 µg/mL	0.863	0.82	0.819	0.792	0.717	0.699
first compound 0.031 µg/mL	0.816	–	0.814	–	0.649	–
first compound 0.062 µg/mL	0.743	–	0.771	–	0.63	–

— the supplement of paper PMC10627819
